The values below come from patent US20090291857A1, “METHODS TO IDENTIFY INHIBITORS OF THE UNFOLDED PROTEIN RESPONSE” (THE BOARD OF TRUSTEES OF THE LELAND STANFORD JUNIOR …, priority 2006, published 2009).

The target of one data set is T1, IRE1α-cyto (Homo sapiens, UniProt O75460).
T1 construct: purified the full cytosolic portion of IRE1α (His6-IRE1α-cyto) containing both kinase and endonuclease domains; 6x-His; made in house; host or cells: bacteria
Briefly: In vitro IRE1α endonuclease (ribonuclease) assay. Format: biochemical. Particulars: 2.5 μM. As to the method:
The in vitro ribonuclease assays were carried out using purified IRE1α-cyto essentially as described. Gonzalez and Walter, Methods Mol Biol 160: 25-36 (2001); Gonzalez et al., Embo J 18: 3119-3132 (1999). For each reaction, 5 μg purified IRE1α-cyto was incubated with 300 ng of fluorescein-labeled RNA stem-loop substrate at 37° C. in a total volume of 300 μl. Aliquots (50 μl) were withdrawn at the indicated times and mixed with an equal volume of stop solution. Id. Reactions were analyzed by SDS-PAGE using 10-20% acrylamide gradient gels. The sequence for the hXBP-1 3′ RNA stem-loop substrate is as follows: 5′[…] G 3′ (SEQ ID NO: 8). […]
HT1080 cells were exposed to DMSO vehicle (lane 1), irestatin 9389 (2.5 μM; lane 2) for 16 hours or Tm (5 μg/ml; lane 3) for 8 hours. Following treatments, cells were harvested, lysed, and analyzed by immunoblotting using anti-Grp78 antibody (top) or anti-actin (bottom) as a loading control. […] Cell lysates were analyzed by Western immunoblotting using anti-IRE1α (bottom) or anti-phospho-IRE1α antibodies (top). […] Lysates were analyzed by Western blot using antisera specific for phospho-JNK1 (top) or total JNK1 (bottom). […] F. Quantification of RNA cleavage kinetics. […] Samples were analyzed as in (E).
Next we determined whether irestatin 9389 inhibited the endonuclease function of IRE1α. […]

Data set [1] in a line: Histopathological analysis of major organs. Format: in vivo, mouse. Particulars: three doses, 50 mg/kg. As to the method:
Complete blood counts (CBC's) and clinical chemistry panels were performed on blood obtained by cardiac puncture after euthanasia with CO2. Gross necropsies were performed, all major viscera were harvested, fixed in 10% buffered neutral formalin, routinely processed for paraffin embedding, and stained with hematoxylin and eosin (H&E). Sections were analyzed by a board-certified veterinary pathologist (DMB).
Pancreas and liver specimens recovered from mice treated with three doses of either vehicle (top) or irestatin 9389 (50 mg/kg; bottom) were sectioned and stained with hematoxylin and eosin.
The increased sensitivity of irestatin-treated cells to hypoxic stress in vitro indicate that selective inhibition of IRE1α signaling could impact tumor growth. […] In contrast, XBP-1s was not detected in normal pancreas specimens (0/20), and infrequently observed in chronic pancreatitis (1/29) (FIG. 15). To explore the effects to irestatin 9389 in vivo, we first established animal dosing parameters using real-time bioluminescence imaging of SCID mice that had been implanted subcutaneously (s.c.) with tumor cells stably expressing the XBP-luciferase reporter. […] The XBP-luciferase signal returned to basal levels by 24 hours after treatment. […] (FIG. 16).

T1 sequence (O75460 465-977 limits assumed): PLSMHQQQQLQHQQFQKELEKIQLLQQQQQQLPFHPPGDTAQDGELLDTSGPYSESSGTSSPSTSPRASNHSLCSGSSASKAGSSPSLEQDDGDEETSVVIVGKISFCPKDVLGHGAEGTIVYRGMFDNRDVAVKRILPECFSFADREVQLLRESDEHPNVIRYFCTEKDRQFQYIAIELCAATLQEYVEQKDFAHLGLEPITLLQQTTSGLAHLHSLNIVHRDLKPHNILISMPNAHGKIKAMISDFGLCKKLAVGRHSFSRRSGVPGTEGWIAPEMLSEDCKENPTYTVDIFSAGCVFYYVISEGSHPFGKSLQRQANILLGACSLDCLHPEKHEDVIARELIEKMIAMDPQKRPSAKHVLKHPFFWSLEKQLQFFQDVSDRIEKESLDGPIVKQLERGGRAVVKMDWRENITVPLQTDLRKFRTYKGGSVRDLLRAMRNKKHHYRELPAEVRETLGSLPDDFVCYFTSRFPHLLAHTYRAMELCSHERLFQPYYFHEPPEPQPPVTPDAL

Take `Cc1csc(NC(=O)CSc2nc3c(c(C(F)(F)F)c2C#N)CCC3)n1` [Compound 9389]: the “cleavage of XBP-1 RNA substrate by His6-IRE1α-cyto” value on IRE1α-cyto is “strongly inhibited cleavage”. The “histopathology of all major organs versus vehicle” value in data set [1] is recorded as “no significant differences”.
